According to US20040058898A1, “Pharmaceutical composition for alleviating the violence of a mammal comprising nortestosterone derivatives” (priority 2002, published 2004):

Assays:
Format in all cases: in vivo
[1] = test system: male ostriches which violently behaved, cried and did not take feed; experiment: Alleviation of the violence and stimulation of the appetite in male ostrich; details: for Alleviation of the violence and stimulation of the appetite: results compared with 17β-decanoate-4-estren-3-one / Alleviation of the violence and stimulation of the appetite according to administered amount: results compared with 17β-decanoate-4-estren-3-one: male ostrich; for Alleviation of the violence and stimulation of the appetite: results compared with 17β-decanoate-4-estren-3-one: same procedures as Experimental Example 1 (100 kg, intramuscular, 100 mg), Example 1 result: alleviated violence and stimulated appetite; for Alleviation of the violence and stimulation of the appetite according to administered amount: results compared with 17β-decanoate-4-estren-3-one: same procedures as Experimental Example 2 (100 kg, intramuscular, 10 to 1000 mg), Example 2 result: alleviated violence and stimulated appetite at every amount
Description: (§1) After administration, their behaviors and appetites were observed.

[2] = test system: male dogs which violently behaved, cried and did not take feed; experiment: Alleviation of the violence and stimulation of the appetite in male dog; details: male dogs 40 kg, 4, 8, 20, 40, 60, 80, 200 and 400 mg (0.1 to 10 mg per kg), Experimental Example 21, summary of Table 4
Description: as §1

[3] = test system: male cats which violently behaved, cried and did not take feed; experiment: Alleviation of the violence and stimulation of the appetite in male cat; details: male cats 1 kg, 0.1, 0.2, 0.5, 1.0, 1.5, 2.0, 5.0 and 10 mg (0.1 to 10 mg per kg), Experimental Example 23, summary of Table 6
Description: as §1

[4] = test system: male horses which violently behaved, cried and did not take feed; experiment: Alleviation of the violence and stimulation of the appetite in male horse; details: male horses 200 kg, 20, 40, 100, 200, 300, 400, 1000 and 2000 mg (0.1 to 10 mg per kg), Experimental Example 25, summary of Table 8
Description: as §1

[5] = test system: male goats which violently behaved, cried and did not take feed; experiment: Alleviation of the violence and stimulation of the appetite in male goat; details: male goats 40 kg, 4, 8, 20, 40, 60, 80, 200 and 400 mg (0.1 to 10 mg per kg), Experimental Example 27, summary of Table 10
Description: as §1

[6] = male ostriches 100 kg, 10, 20, 50, 100, 150, 200, 500 and 1000 mg (0.1 to 10 mg per kg), Experimental Example 2, summary of Table 2

Structure (SMILES)	Alleviation of the violence and stimulation of the appetite: results compared with 17β-decanoate-4-estren-3-one [1]	Alleviation of the violence and stimulation of the appetite according to administered amount: results compared with 17β-decanoate-4-estren-3-one [1]	further results
CCC(=O)O[C@H]1CC[C@H]2[C@@H]3CCC4=CC(=O)CC[C@@H]4[C@H]3CC[C@]12C [17β-propionate-4-estren-3-one]	the same with the result of the experiment using 17β-decanoate-4-estren-3-one in Experimental Example 1	the same with the result of the experiment using 17β-decanoate-4-estren-3-one in Experimental Example 2	–
C[C@]12CC[C@H]3[C@@H](CCC4=CC(=O)CC[C@@H]43)[C@@H]1CC[C@@H]2O [17β-hydroxy-4-estren-3-one]	the same with the result of the experiment using 17β-decanoate-4-estren-3-one in Experimental Example 1	the same with the result of the experiment using 17β-decanoate-4-estren-3-one in Experimental Example 2	appetite after intramuscular injection [1, 6]: appetite stimulated; feed intake after administration [1, 6]: increased feed intake; violence of estrus after intramuscular injection [1, 6]: violence of estrus alleviated; appetite after intramuscular injection [2]: appetite stimulated; feed intake after administration [2]: increased feed intake; violence of estrus after intramuscular injection [2]: violence of estrus alleviated; appetite after intramuscular injection [3]: appetite stimulated; feed intake after administration [3]: increased feed intake; violence of estrus after intramuscular injection [3]: violence of estrus alleviated; appetite after intramuscular injection [4]: appetite stimulated; feed intake after administration [4]: increased feed intake; violence of estrus after intramuscular injection [4]: violence of estrus alleviated; appetite after intramuscular injection [5]: appetite stimulated; feed intake after administration [5]: increased feed intake; violence of estrus after intramuscular injection [5]: violence of estrus alleviated
CCCCCCCCCCCC(=O)O[C@H]1CC[C@H]2[C@@H]3CCC4=CC(=O)CC[C@@H]4[C@H]3CC[C@]12C [17β-dodecanoate-4-estren-3-one]	the same with the result of the experiment using 17β-decanoate-4-estren-3-one in Experimental Example 1	the same with the result of the experiment using 17β-decanoate-4-estren-3-one in Experimental Example 2	–
C[C@]12CC[C@H]3[C@@H](CCC4=CC(=O)CC[C@@H]43)[C@@H]1CC[C@@H]2OC(=O)CCC1CCCCC1 [17β-cyclohexylpropinoate-4-estren-3-one]	the same with the result of the experiment using 17β-decanoate-4-estren-3-one in Experimental Example 1	–	–
C[C@]12CC[C@H]3[C@@H](CCC4=CC(=O)CC[C@@H]43)[C@@H]1CC[C@@H]2OC(=O)CCc1ccccc1 [17β-phenpropionate-4-estren-3-one]	the same with the result of the experiment using 17β-decanoate-4-estren-3-one in Experimental Example 1	the same with the result of the experiment using 17β-decanoate-4-estren-3-one in Experimental Example 2	–
C[C@]12CC[C@H]3[C@@H](CCC4=CC(=O)CC[C@@H]43)[C@@H]1CC[C@@H]2OC(=O)c1ccccc1 [17β-benzoate-4-estren-3-one]	the same with the result of the experiment using 17β-decanoate-4-estren-3-one in Experimental Example 1	the same with the result of the experiment using 17β-decanoate-4-estren-3-one in Experimental Example 2	–
CCCCCCOc1ccc(CCC(=O)O[C@H]2CC[C@H]3[C@@H]4CCC5=CC(=O)CC[C@@H]5[C@H]4CC[C@]23C)cc1 [17β-p-hexyloxyphenylpropionate-4-estren-3-one]	the same with the result of the experiment using 17β-decanoate-4-estren-3-one in Experimental Example 1	the same with the result of the experiment using 17β-decanoate-4-estren-3-one in Experimental Example 2	–
C[C@]12CC[C@H]3[C@@H](CCC4=CC(=O)CC[C@@H]43)[C@@H]1CC[C@@H]2OC(=O)C1CCCCC1 [17β-cyclohexanecarboxylate-4-estren-3-one]	the same with the result of the experiment using 17β-decanoate-4-estren-3-one in Experimental Example 1	the same with the result of the experiment using 17β-decanoate-4-estren-3-one in Experimental Example 2	–
